# Tests used:
# human GLP-1R = human GLP-1R (Homo sapiens, UniProt P43220); experiment: RIP1-CRE-Luc luciferase reporter; assay type: cell-based; details: HEK-GLP-1R cells transfected with RIP1-CRE-Luc; 4 h exposure
# [1] = ref [8],[9]; cited from earlier work
# [2] = tested on: dipeptidyl peptidase IV (DPP-IV); details: ref [8],[9]; cited from earlier work
# Chain of human GLP-1R (P43220 24-463): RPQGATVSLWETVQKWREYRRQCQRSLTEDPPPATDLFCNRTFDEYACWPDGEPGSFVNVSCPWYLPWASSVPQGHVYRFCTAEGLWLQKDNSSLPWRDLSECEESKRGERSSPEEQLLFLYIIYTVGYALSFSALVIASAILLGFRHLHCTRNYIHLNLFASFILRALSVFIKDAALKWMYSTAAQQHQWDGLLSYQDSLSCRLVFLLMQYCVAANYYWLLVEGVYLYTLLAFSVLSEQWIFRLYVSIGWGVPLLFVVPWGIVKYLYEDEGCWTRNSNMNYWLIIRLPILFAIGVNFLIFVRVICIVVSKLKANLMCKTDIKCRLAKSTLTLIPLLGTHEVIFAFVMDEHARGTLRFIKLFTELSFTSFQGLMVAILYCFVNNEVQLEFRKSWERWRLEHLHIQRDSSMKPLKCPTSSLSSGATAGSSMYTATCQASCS
Molecule,luciferase response (in words) (human GLP-1R),fraction of secreted GLP-1 surviving intact to the systemic circulation [1],"t1/2, degradation by DPP-IV [2]"
cyanocobalamin [B12],did not produce any response,–,–
CC[C@H](C)[C@H](NC(=O)[C@H](Cc1ccccc1)NC(=O)[C@H](CCC(=O)O)NC(=O)[C@H](CCCCNC(=O)OC[C@H]1O[C@H](n2cnc3cc(C)c(C)cc32)[C@H](O)[C@@H]1OP(=O)(O)O[C@H](C)CNC(=O)CC[C@@]1(C)/C2=C(\C)C3=N/C(=C\C4=NC(=C(/C)C5=N[C@@](C)([C@H](N2)[C@@H]1CC(N)=O)[C@@](C)(CC(N)=O)[C@@H]5CCC(N)=O)/[C@@](C)(CC(N)=O)[C@@H]4CCC(N)=O)C(C)(C)[C@@H]3CCC(N)=O)NC(=O)[C@H](C)NC(=O)[C@H](C)NC(=O)[C@H](CCC(N)=O)NC(=O)CNC(=O)[C@H](CCC(=O)O)NC(=O)[C@H](CC(C)C)NC(=O)[C@H](Cc1ccc(O)cc1)NC(=O)[C@H](CO)NC(=O)[C@H](CO)NC(=O)[C@@H](NC(=O)[C@H](CC(=O)O)NC(=O)[C@H](CO)NC(=O)[C@@H](NC(=O)[C@H](Cc1ccccc1)NC(=O)[C@@H](NC(=O)CNC(=O)[C@H](CCC(=O)O)NC(=O)[C@H](C)NC(=O)[C@@H](N)Cc1c[nH]cn1)[C@@H](C)O)[C@@H](C)O)C(C)C)C(=O)N[C@@H](C)C(=O)N[C@@H](Cc1c[nH]c2ccccc12)C(=O)N[C@@H](CC(C)C)C(=O)N[C@H](C(=O)N[C@@H](CCCNC(=N)N)C(=O)NCC(=O)N[C@@H](CCCNC(=N)N)C(N)=O)C(C)C [compound 1],concentration-dependent response,–,–
glucagon-like peptide-1 (7–36) amide [GLP-1],–,10–15%,1 to 2 min

# Source: publication PMC3771382 (ChemMedChem, 2012)
